In PubChem BioAssay AID540349 (The Scripps Research Institute Molecular Screening Center, 2011):
pEC50: −log10 of the molar value. The source made the active and inactive calls. How the calls were made is not given here.

Target: Sphingosine 1-phosphate receptor 3 (Homo sapiens) (UniProt Q99500)
Assay: activation of S1P3 receptor – cell-based, fluorescence, synthesized compounds, SAR follow-up (AID 540349)
Conditions: S1P3-expressing cells, agonist fluorescence read-out

Sphingosine 1-phosphate receptor 3 (Homo sapiens), sequence (Q99500 whole entry, looked up): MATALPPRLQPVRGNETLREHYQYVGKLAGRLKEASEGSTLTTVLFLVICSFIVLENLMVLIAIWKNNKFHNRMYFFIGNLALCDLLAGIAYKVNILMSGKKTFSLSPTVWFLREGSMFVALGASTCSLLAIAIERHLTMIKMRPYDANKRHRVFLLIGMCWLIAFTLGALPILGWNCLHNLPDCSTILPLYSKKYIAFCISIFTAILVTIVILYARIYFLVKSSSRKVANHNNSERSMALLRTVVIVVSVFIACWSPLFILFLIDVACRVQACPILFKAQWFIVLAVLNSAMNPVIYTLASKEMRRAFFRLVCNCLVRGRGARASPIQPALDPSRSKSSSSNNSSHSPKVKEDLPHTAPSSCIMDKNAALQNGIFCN

Compound | pEC50 (run 1) | pEC50 (run 2) | pEC50 (run 3) | EC50 (run 1) | EC50 (run 2) | EC50 (run 3)
O=C(c1cc(C2CC2)on1)N(CC1CCCCC1)C1CCCCC1 | 5.19 | 5.67 | 5.76 |  |  | 
O=C(c1cc(-c2ccccc2)on1)N(C1CCCCC1)C1CCCC1 | 5.81 | 6.28 | 6.33 |  |  | 
CC(C)Cc1cc(C(=O)N(C2CCCCC2)C2CCCCC2)no1 | 5.68 | 6.11 | 5.90 |  |  | 
CC1CCCCC1N(C(=O)c1cc(C2CC2)on1)C1CCCCCC1 (configuration not stated) | 6.07 | 6.55 | 6.32 |  |  | 
CC(C)c1cc(C(=O)N(C2CCCCC2)C2CCCCC2)no1 | 5.85 | 6.10 | 6.18 |  |  | 
CC1CCCCC1N(C(=O)c1cc(C2CC2)on1)C1CCCCC1C (configuration not stated) | 6.55 | 6.90 | 6.70 |  |  | 
CC1CCCCC1N(C(=O)c1cc(C2CC2)on1)C1CCCC1 (configuration not stated) | 5.58 | 5.97 | 5.82 |  |  | 
COc1ccc(-c2cc(C(=O)N(C3CCCCC3)C3CCCCC3)no2)cc1OC |  |  |  | > 10000 nM (inactive) | > 50000 nM (inactive) | > 50000 nM (inactive)
O=C(c1cc(C2CC2)on1)N(Cc1ccccc1)c1ccccc1 | 5.12 | 5.09 | 5.28 |  |  | 
CCN(CC)C(=O)c1cc(C2CC2)on1 |  |  |  | > 10000 nM (inactive) | > 50000 nM (inactive) | > 50000 nM (inactive)
O=C(c1cc(-c2ccccc2)on1)N(C1CCCCC1)C1CCCCC1 | 6.67 | 7.45 | 7.23 |  |  | 
O=C(c1cc(C2CC2)on1)N(C1CCCCCC1)C1CCCC1 | 5.41 | 5.62 | 5.71 |  |  | 
O=C(c1cc(C2CC2)on1)N(Cc1ccccc1)Cc1ccccc1 |  |  |  | > 10000 nM (inactive) | > 50000 nM (inactive) | > 50000 nM (inactive)

The next lines start with the values.

pEC50 (run 1) | pEC50 (run 2) | pEC50 (run 3) | EC50 (run 1) | EC50 (run 2) | EC50 (run 3) | Compound
6.23 | 6.76 | 6.67 |  |  |  | COc1ccc(-c2cc(C(=O)N(C3CCCCC3)C3CCCCC3)no2)cc1
 |  |  | > 10000 nM (inactive) | > 50000 nM (inactive) | > 50000 nM (inactive) | O=C(c1ccc(C2CC2)o1)N(C1CCCCC1)C1CCCCC1
 |  |  | > 10000 nM (inactive) | > 50000 nM (inactive) | > 50000 nM (inactive) | O=C(NC1CCCCC1)c1cc(C2CC2)on1
7.14 | 6.88 | 6.95 |  |  |  | O=C(c1cc(C2CC2)on1)N(C1CCCCC1)C1CCCCC1
 | 5.65 | 5.47 | > 10000 nM (inactive) |  |  | CC1CCCCC1N(C(=O)c1cc(C2CC2)on1)C1CCOCC1 (configuration not stated)
5.56 | 5.91 | 5.97 |  |  |  | O=C(c1cc(C2CC2)on1)N(C1CCCCC1)C1CCCC1
 |  |  | > 10000 nM (inactive) | > 50000 nM (inactive) | > 50000 nM (inactive) | O=C(c1noc2ccccc12)N(C1CCCCC1)C1CCCCC1
 | 5.10 | 5.09 | > 10000 nM (inactive) |  |  | CCOc1ccc(-c2nc(C(=O)N(C3CCCCC3)C3CCCCC3)co2)cc1OCC
6.31 | 6.47 | 6.33 |  |  |  | CCCc1cc(C(=O)N(C2CCCCC2)C2CCCCC2)no1
 |  | 5.25 | > 10000 nM (inactive) | inactive |  | CCCc1cc(C(=O)N(C2CCCCC2)C2CCCC2)no1
 |  |  | > 10000 nM (inactive) | inactive | inactive | COc1ccc(N(Cc2ccccc2)C(=O)c2cc(C3CC3)on2)cc1
6.46 | 6.49 | 6.47 |  |  |  | CC1CCCCC1N(C(=O)c1cc(C2CC2)on1)C1CCCCC1 (configuration not stated)
5.16 | 5.12 | 5.28 |  |  |  | O=C(c1cc(C2CC2)on1)N(Cc1ccccc1)c1ccccn1
 |  |  | > 10000 nM (inactive) | > 50000 nM (inactive) | > 50000 nM (inactive) | CCCc1cc(C(=O)NC2CCCCC2)no1
5.42 | 5.43 | 5.52 |  |  |  | O=C(c1cc(C2CC2)on1)N(C1CCCCC1)C1CCOCC1
 |  |  | > 10000 nM (inactive) | > 50000 nM (inactive) | > 50000 nM (inactive) | O=C(c1coc(C2CC2)n1)N(C1CCCCC1)C1CCCCC1
